Results: ChEMBL document CHEMBL3045592, “Studies of O,O-dimethyl α-(2,4-dichlorophenoxyacetoxy)ethylphosphonate (HW02) as a new herbicide. 1. Synthesis and herbicidal activity of HW02 and analogues as novel inhibitors of pyruvate dehydrogenase complex” (J Agric Food Chem, 2011)

Key:
[1] = tested on: Cucumis sativus; assay: Herbicidal activity against Cucumis sativus Jin 4 (cucumber) assessed as inhibition of stem growth after 3 days; format: functional, organism-based; details: Jin 4, 72 h
[2] = tested on: Cucumis sativus; assay: Herbicidal activity against Cucumis sativus Jin 4 (cucumber) assessed as inhibition of root growth after 3 days; format: functional, organism-based; details: Jin 4, 72 h
[3] = tested on: Digitaria sanguinalis; assay: Post-emergence herbicidal activity against Digitaria sanguinalis (hairy crabgrass) assessed as growth inhibition at 75 ai g/ha after 20 days by green house test; format: functional
[4] = tested on: Digitaria sanguinalis; assay: Pre-emergence herbicidal activity against Digitaria sanguinalis (hairy crabgrass) assessed as growth inhibition at 450 ai g/ha after 20 days by green house test; format: functional
[5] = tested on: Digitaria sanguinalis; assay: Pre-emergence herbicidal activity against Digitaria sanguinalis (hairy crabgrass) assessed as growth inhibition at 150 ai g/ha after 20 days by green house test; format: functional
[6] = tested on: Digitaria sanguinalis; assay: Pre-emergence herbicidal activity against Digitaria sanguinalis (hairy crabgrass) assessed as growth inhibition at 75 ai g/ha after 20 days by green house test; format: functional
[7] = tested on: Chenopodium album; assay: Post-emergence herbicidal activity against Chenopodium album assessed as growth inhibition at 450 ai g/ha after 20 days by green house test; format: functional
[8] = tested on: Chenopodium album; assay: Post-emergence herbicidal activity against Chenopodium album assessed as growth inhibition at 150 ai g/ha after 20 days by green house test; format: functional
[9] = tested on: Chenopodium album; assay: Post-emergence herbicidal activity against Chenopodium album assessed as growth inhibition at 75 ai g/ha after 20 days by green house test; format: functional
[10] = tested on: Chenopodium album; assay: Pre-emergence herbicidal activity against Chenopodium album assessed as growth inhibition at 450 ai g/ha after 20 days by green house test; format: functional
[11] = tested on: Chenopodium album; assay: Pre-emergence herbicidal activity against Chenopodium album assessed as growth inhibition at 150 ai g/ha after 20 days by green house test; format: functional
[12] = tested on: Chenopodium album; assay: Pre-emergence herbicidal activity against Chenopodium album assessed as growth inhibition at 75 ai g/ha after 20 days by green house test; format: functional
[13] = tested on: Amaranthus spinosus; assay: Post-emergence herbicidal activity against Amaranthus spinosus assessed as growth inhibition at 450 ai g/ha after 20 days by green house test; format: functional
[14] = tested on: Amaranthus spinosus; assay: Post-emergence herbicidal activity against Amaranthus spinosus assessed as growth inhibition at 150 ai g/ha after 20 days by green house test; format: functional
[15] = tested on: Amaranthus spinosus; assay: Post-emergence herbicidal activity against Amaranthus spinosus assessed as growth inhibition at 75 ai g/ha after 20 days by green house test; format: functional
[16] = tested on: Abutilon theophrasti; assay: Post-emergence herbicidal activity against Abutilon theophrasti (velvetleaf) assessed as growth inhibition at 75 ai g/ha after 20 days by green house test; format: functional
[17] = tested on: Abutilon theophrasti; assay: Pre-emergence herbicidal activity against Abutilon theophrasti (velvetleaf) assessed as growth inhibition at 450 ai g/ha after 20 days by green house test; format: functional
[18] = tested on: Abutilon theophrasti; assay: Pre-emergence herbicidal activity against Abutilon theophrasti (velvetleaf) assessed as growth inhibition at 150 ai g/ha after 20 days by green house test; format: functional
[19] = tested on: Abutilon theophrasti; assay: Pre-emergence herbicidal activity against Abutilon theophrasti (velvetleaf) assessed as growth inhibition at 75 ai g/ha after 20 days by green house test; format: functional
[20] = tested on: Medicago sativa; assay: Post-emergence herbicidal activity against Medicago sativa (alfalfa) assessed as growth inhibition at 1500 ai g/ha after 20 days by green house test; format: functional
[21] = tested on: Amaranthus retroflexus; assay: Post-emergence herbicidal activity against Amaranthus retroflexus assessed as growth inhibition at 1500 ai g/ha after 20 days by green house test; format: functional
[22] = tested on: Brassica rapa subsp. oleifera; assay: Post-emergence herbicidal activity against Brassica rapa subsp. oleifera Si Yue Man assessed as growth inhibition at 1500 ai g/ha after 20 days by green house test; format: functional
[23] = tested on: Digitaria sanguinalis; assay: Post-emergence herbicidal activity against Digitaria sanguinalis (hairy crabgrass) assessed as growth inhibition at 1500 ai g/ha after 20 days by green house test; format: functional
[24] = tested on: Echinochloa crus-galli; assay: Post-emergence herbicidal activity against Echinochloa crus-galli (barnyard grass) assessed as growth inhibition at 1500 ai g/ha after 20 days by green house test; format: functional
[25] = tested on: Medicago sativa; assay: Pre-emergence herbicidal activity against Medicago sativa (alfalfa) assessed as growth inhibition at 1500 ai g/ha after 20 days by green house test; format: functional
[26] = tested on: Amaranthus retroflexus; assay: Pre-emergence herbicidal activity against Amaranthus retroflexus assessed as growth inhibition at 1500 ai g/ha after 20 days by green house test; format: functional
[27] = tested on: Brassica rapa subsp. oleifera; assay: Pre-emergence herbicidal activity against Brassica rapa subsp. oleifera Si Yue Man assessed as growth inhibition at 1500 ai g/ha after 20 days by green house test; format: functional
[28] = tested on: Digitaria sanguinalis; assay: Pre-emergence herbicidal activity against Digitaria sanguinalis (hairy crabgrass) assessed as growth inhibition at 1500 ai g/ha after 20 days by green house test; format: functional
[29] = tested on: Echinochloa crus-galli; assay: Pre-emergence herbicidal activity against Echinochloa crus-galli (barnyard grass) assessed as growth inhibition at 1500 ai g/ha after 20 days by green house test; format: functional
[30] = tested on: Amaranthus spinosus; assay: Pre-emergence herbicidal activity against Amaranthus spinosus assessed as growth inhibition at 450 ai g/ha after 20 days by green house test; format: functional
[31] = tested on: Amaranthus spinosus; assay: Pre-emergence herbicidal activity against Amaranthus spinosus assessed as growth inhibition at 150 ai g/ha after 20 days by green house test; format: functional
[32] = tested on: Amaranthus spinosus; assay: Pre-emergence herbicidal activity against Amaranthus spinosus assessed as growth inhibition at 75 ai g/ha after 20 days by green house test; format: functional
[33] = tested on: Abutilon theophrasti; assay: Post-emergence herbicidal activity against Abutilon theophrasti (velvetleaf) assessed as growth inhibition at 450 ai g/ha after 20 days by green house test; format: functional
[34] = tested on: Abutilon theophrasti; assay: Post-emergence herbicidal activity against Abutilon theophrasti (velvetleaf) assessed as growth inhibition at 150 ai g/ha after 20 days by green house test; format: functional
[35] = tested on: Setaria viridis; assay: Post-emergence herbicidal activity against Setaria viridis (green foxtail) assessed as growth inhibition at 450 ai g/ha after 20 days by green house test; format: functional
[36] = tested on: Setaria viridis; assay: Post-emergence herbicidal activity against Setaria viridis (green foxtail) assessed as growth inhibition at 150 ai g/ha after 20 days by green house test; format: functional
[37] = tested on: Setaria viridis; assay: Post-emergence herbicidal activity against Setaria viridis (green foxtail) assessed as growth inhibition at 75 ai g/ha after 20 days by green house test; format: functional
[38] = tested on: Setaria viridis; assay: Pre-emergence herbicidal activity against Setaria viridis (green foxtail) assessed as growth inhibition at 450 ai g/ha after 20 days by green house test; format: functional
[39] = tested on: Setaria viridis; assay: Pre-emergence herbicidal activity against Setaria viridis (green foxtail) assessed as growth inhibition at 150 ai g/ha after 20 days by green house test; format: functional
[40] = tested on: Setaria viridis; assay: Pre-emergence herbicidal activity against Setaria viridis (green foxtail) assessed as growth inhibition at 75 ai g/ha after 20 days by green house test; format: functional
[41] = tested on: Digitaria sanguinalis; assay: Post-emergence herbicidal activity against Digitaria sanguinalis (hairy crabgrass) assessed as growth inhibition at 450 ai g/ha after 20 days by green house test; format: functional
[42] = tested on: Digitaria sanguinalis; assay: Post-emergence herbicidal activity against Digitaria sanguinalis (hairy crabgrass) assessed as growth inhibition at 150 ai g/ha after 20 days by green house test; format: functional

CCCC(OC(=O)COc1ccc(Cl)cc1Cl)P(=O)(OC)OC (stereo not given)
IC50 [1]: 9340 nM
IC50 [2]: 7.5 nM

CCOP(=O)(OCC)C(C)OC(=O)C(C)Oc1ccc(Cl)cc1Cl (stereo not given)
IC50 [2]: 1080 nM

CCOP(=O)(OCC)C(OC(=O)COc1ccc(Cl)cc1Cl)c1ccccc1 (stereo not given)
IC50 [1]: 109000 nM
IC50 [2]: 48.8 nM

COP(=O)(OC)C(OC(=O)COc1ccc(Cl)cc1C)c1cccc([N+](=O)[O-])c1 (stereo not given)
growth inhibition (GI) [3]: 0%
growth inhibition (GI) [4]: 0%
growth inhibition (GI) [5]: 0%
growth inhibition (GI) [6]: 0%
growth inhibition (GI) [7]: 100%
growth inhibition (GI) [8]: 82.5%
growth inhibition (GI) [9]: 52.5%
growth inhibition (GI) [10]: 0%
growth inhibition (GI) [11]: 0%
growth inhibition (GI) [12]: 0%
growth inhibition (GI) [13]: 100%
growth inhibition (GI) [14]: 100%
growth inhibition (GI) [15]: 50%
growth inhibition (GI) [16]: 50%
growth inhibition (GI) [17]: 0%
growth inhibition (GI) [18]: 0%
growth inhibition (GI) [19]: 0%
growth inhibition (GI) [20]: 50%
growth inhibition (GI) [21]: 90%
growth inhibition (GI) [22]: 75%
growth inhibition (GI) [23]: <=50%
growth inhibition (GI) [24]: 75%
growth inhibition (GI) [25]: 75%
growth inhibition (GI) [26]: 75%
growth inhibition (GI) [27]: 50%
growth inhibition (GI) [28]: 90%
growth inhibition (GI) [29]: 90%
growth inhibition (GI) [30]: 0%
growth inhibition (GI) [31]: 0%
growth inhibition (GI) [32]: 0%
growth inhibition (GI) [33]: 100%
growth inhibition (GI) [34]: 90%
growth inhibition (GI) [35]: 0%
growth inhibition (GI) [36]: 0%
growth inhibition (GI) [37]: 0%
growth inhibition (GI) [38]: 0%
growth inhibition (GI) [39]: 0%
growth inhibition (GI) [40]: 0%
growth inhibition (GI) [41]: 10%
growth inhibition (GI) [42]: 0%
